According to US8546377B2 (AbbVie Inc., priority 2009, dated 2013):

What was measured:
[1] = target: T1, human serotonin 5-HT2c receptor (Homo sapiens, UniProt P28335); experiment: Human 5-HT2C receptor radioligand binding assay (agonist site, [125I](±)DOI); settings: membranes of transfected CHO cells, 0.2 nM [125I](±)DOI, 15 minutes at 37° C.
T1 construct: expressed in transfected cells; host or cells: CHO cells (membrane homogenate)
T1 sequence (P28335 33-458): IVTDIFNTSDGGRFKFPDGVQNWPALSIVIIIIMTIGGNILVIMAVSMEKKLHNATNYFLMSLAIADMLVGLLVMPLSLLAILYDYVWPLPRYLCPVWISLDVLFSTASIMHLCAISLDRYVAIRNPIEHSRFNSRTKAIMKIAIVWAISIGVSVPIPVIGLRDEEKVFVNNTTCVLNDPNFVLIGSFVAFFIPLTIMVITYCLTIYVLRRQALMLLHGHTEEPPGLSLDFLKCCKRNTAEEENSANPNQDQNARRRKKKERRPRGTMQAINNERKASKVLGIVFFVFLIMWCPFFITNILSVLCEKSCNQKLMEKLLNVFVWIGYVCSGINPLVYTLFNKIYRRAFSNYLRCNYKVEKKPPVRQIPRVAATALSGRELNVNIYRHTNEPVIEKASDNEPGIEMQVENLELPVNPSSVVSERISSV
Method: To determine the effectiveness of compounds having a formula (I), these compounds can be evaluated in a radioligand binding assay for the agonist site of the human serotonin 5-HT2c receptor or in vitro models of cellular function.
(i) Human 5-HT2C Receptor Radioligand Binding Assay
Affinity of compounds for the agonist site of the 5-HT2c receptor in transfected CHO cells was determined in a radioligand binding assay essentially as described by Bryant, H. U., et al., Life Sciences (1996) 59(15), 1259-1268.

[2] = target: T2, 5HT2C receptors (Homo sapiens, UniProt P28335); experiment: Human 5-HT2C functional assay in 1321N1 cells (intracellular calcium, FLIPR); type: cell-based; parameters: expressed in transfected cells; host or cells: 1321N1 cells; settings: for EC50: 1321N1 cells stably transfected, maximum calcium response, read-out: EC50 (μM), 5-HT2c Agonist Activity; for Emax: 1321N1 cells, percentage relative to the effect of serotonin, read-out: Emax (%), 5-HT2c Agonist Activity
T2 sequence (P28335 33-458): T1 sequence (P28335 33-458)
Method: (ii) Human 5-HT2C Functional Assay in 1321N1 Cells
Functional activity was determined by testing the effect of the compounds on intracellular calcium levels in 1321N1 cells stably transfected with the human 5-HT2C receptor. Cells were seeded into 96-well plates at 50,000 cells/well and grown overnight in tissue culture medium (DMEM with Glutamax I (Invitrogen), containing 10% dFCS, 50 μg/mL Gentamicin, 400 μg/mL Geneticin) at 37° C. and 7% CO2. Growth medium was replaced by medium without dFCS for overnight incubation. Cells were loaded with a fluorescent calcium-sensitive dye in the presence of 1% probenicid according to the manufacturer's protocol (Fluo4 AM, Molecular Devices). Serial compound dilutions (final concentrations 10^−10 to 10^−5 M) were added to the cells either alone or in the presence of serotonin (10^−9 M) and the maximum calcium response was determined using a FLIPR instrument (Molecular Devices). Concentration-response curves were fitted using a four-parameter logistic equation (GraphPad Prism). The concentration at which the compound exerts half its maximal effect is named the ‘effective concentration 50’ or ‘EC50’ and is listed in Table 2.
Emax is the maximum functional response or efficacy expressed as a percentage relative to the effect of serotonin.

[3] = target: T3, 5HT2B receptors (Homo sapiens, UniProt P41595); experiment: Human 5-HT2B functional assay in CHO-K1 cells (calcium flux, FLIPR); type: cell-based
T3 construct: expressed in transfected cells; host or cells: CHO-K1 cells
In short: (§1)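 Frozen CHO-K1 cells over-expressing receptor, serum-starved overnight, loaded with Ca4 dye plus 2.5 mM probenecid for 60 min at room temperature. FLIPR fluorescence (ex 480/em 530 nm, 25° C) recorded 3 min after compound addition; 6-point 1:10 series from 10 μM, 0.2% DMSO. Response normalized to serotonin, 4-parameter fit gives EC50; Emax as % of serotonin.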

[4] = target: T2, 5HT2C receptors; experiment: Human 5-HT2C functional assay in CHO-K1 cells (calcium flux, FLIPR); type: cell-based; parameters: expressed in transfected cells; host or cells: CHO-K1 cells
In short: as §1

T3 sequence (P41595 whole entry): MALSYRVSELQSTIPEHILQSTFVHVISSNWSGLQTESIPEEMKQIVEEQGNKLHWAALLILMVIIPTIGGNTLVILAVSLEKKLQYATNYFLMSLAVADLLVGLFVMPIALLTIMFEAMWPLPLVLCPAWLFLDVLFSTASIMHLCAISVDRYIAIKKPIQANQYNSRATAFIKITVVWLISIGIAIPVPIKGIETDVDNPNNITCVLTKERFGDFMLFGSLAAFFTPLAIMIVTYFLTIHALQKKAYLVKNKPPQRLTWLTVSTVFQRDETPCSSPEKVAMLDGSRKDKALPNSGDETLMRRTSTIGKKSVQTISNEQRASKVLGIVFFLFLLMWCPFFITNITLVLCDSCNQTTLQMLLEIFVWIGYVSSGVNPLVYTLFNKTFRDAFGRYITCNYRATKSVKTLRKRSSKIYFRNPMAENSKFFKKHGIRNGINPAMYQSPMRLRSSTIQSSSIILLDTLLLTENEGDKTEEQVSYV

SMILES	Ki [1] [µM]	EC50 [2] [µM]	Emax [2] [%]	EC50 [3] [nM]	Emax ([3]; CHO-K1, read-out: Emax (%), 5-HT2B Agonist Activity) [%]	EC50 [4] [nM]	Emax ([4]; CHO-K1, read-out: Emax (%), 5-HT2c Agonist Activity, CHO-K1 cells, percentage relative to the effect of serotonin) [%]
O=C1CC2CNCCN2c2ccccc2N1 (stereo not drawn) [Example 1, 1,2,3,4,4a,5-hexahydropyrazino[1,2-a][1,5]benzodiazepin-6(7H)-one]	0.086	0.0135	100				
O=C1CC2CNCCN2c2cc(Cl)ccc2N1 (stereo not drawn) [Example 3, 10-chloro-1,2,3,4,4a,5-hexahydropyrazino[1,2-a][1,5]benzodiazepin-6(7H)-one]	0.012	0.0017	93				
O=C1CC2CNCCN2c2cc(Br)ccc2N1 (stereo not drawn) [Example 4, 10-bromo-1,2,3,4,4a,5-hexahydropyrazino[1,2-a][1,5]-benzodiazepin-6(7H)-one]	0.0069	0.0028	92				
Cc1ccc2c(c1)N1CCNCC1CC(=O)N2 (stereo not drawn) [Example 10, 10-methyl-1,2,3,4,4a,5-hexahydropyrazino[1,2-a][1,5]benzodiazepin-6(7H)-one]	0.0083	0.003	99				
N#Cc1ccc2c(c1)N1CCNCC1CC(=O)N2 (stereo not drawn) [Example 11, 6-oxo-1,2,3,4,4a,5,6,7-octahydropyrazino[1,2-a][1,5]benzodiazepine-10-carbonitrile]	0.19	0.0938	104				
COc1ccc2c(c1)N1CCNCC1CC(=O)N2 (stereo not drawn) [Example 12, 10-methoxy-1,2,3,4,4a,5-hexahydropyrazino[1,2-a][1,5]benzodiazepin-6(7H)-one]	0.038	0.0381	83.5				
O=C1CC2CNCCN2c2ccc(Br)cc2N1 (stereo not drawn) [Example 13, 9-bromo-1,2,3,4,4a,5-hexahydropyrazino[1,2-a][1,5]benzodiazepin-6(7H)-one]	0.23	0.0683	79				
O=C1CC2CNCCN2c2cc(Cl)c(Cl)cc2N1 (stereo not drawn) [Example 15, 9,10-dichloro-1,2,3,4,4a,5-hexahydropyrazino[1,2-a][1,5]benzodiazepin-6(7H)-one]	0.017	0.0081	104				
Clc1cc2c(cc1Cl)N1CCNCC1CCN2 (stereo not drawn) [Example 16, 9,10-dichloro-1,2,3,4,4a,5,6,7-octahydropyrazino[1,2-a][1,5]benzodiazepine]	0.004	0.0018	91				
c1ccc2c(c1)NCCC1CNCCN21 (stereo not drawn) [Example 17, 1,2,3,4,4a,5,6,7-octahydropyrazino[1,2-a][1,5]benzodiazepine]	0.14	0.073	111				
Clc1ccc2c(c1)N1CCNCC1CCN2 (stereo not drawn) [Example 18, 10-chloro-1,2,3,4,4a,5,6,7-octahydropyrazino[1,2-a][1,5]benzodiazepine]	0.018	0.0037	108				
CN1C(=O)CC2CNCCN2c2ccccc21 (stereo not drawn) [Example 20, 7-methyl-1,2,3,4,4a,5-hexahydropyrazino[1,2-a][1,5]benzodiazepin-6(7H)-one]	0.22	0.0759	103				
CCN1CCN2c3ccccc3NC(=O)CC2C1 (stereo not drawn) [Example 23, 3-ethyl-1,2,3,4,4a,5-hexahydropyrazino[1,2-a][1,5]benzodiazepin-6(7H)-one]	0.19	0.165	87				
O=C1CC2CNCCN2c2cc(/C=C/c3ccc(Cl)cc3)ccc2N1 (stereo not drawn) [Example 27, 10-[(E)-2-(4-chlorophenyl)vinyl]-1,2,3,4,4a,5-hexahydropyrazino[1,2-a][1,5]benzodiazepin-6(7H)-one]	0.013	0.183	96.5				
Fc1cccc2c1N1CCNC[C@@H]1CCO2 [Example 272, (4aS)-11-fluoro-2,3,4,4a,5,6-hexahydro-1H-pyrazino[2,1-d][1,5]benzoxazepine]				50	30	5	85

Further lines, with some results ahead:

Ki [1] [µM]	SMILES	EC50 [2] [µM]	Emax [2] [%]	EC50 [3] [nM]	Emax ([3]; CHO-K1, read-out: Emax (%), 5-HT2B Agonist Activity) [%]	EC50 [4] [nM]	Emax ([4]; CHO-K1, read-out: Emax (%), 5-HT2c Agonist Activity, CHO-K1 cells, percentage relative to the effect of serotonin) [%]
0.074	O=C1CC2CNCCN2c2cc(-c3ccccc3)ccc2N1 (stereo not drawn) [Example 5, 10-phenyl-1,2,3,4,4a,5-hexahydropyrazino[1,2-a][1,5]benzodiazepin-6(7H)-one]	0.0849	86				
0.0035	O=C1CC2CNCCN2c2cc(/C=C/c3ccccc3)ccc2N1 (stereo not drawn) [Example 6, 10-[(E)-2-phenylvinyl]-1,2,3,4,4a,5-hexahydropyrazino[1,2-a][1,5]benzodiazepin-6(7H)-one]	0.0298	89.5				
0.041	O=C1CC2CNCCN2c2cc(-c3cccc(Cl)c3)ccc2N1 (stereo not drawn) [Example 7, 10-(3-chlorophenyl)-1,2,3,4,4a,5-hexahydropyrazino[1,2-a][1,5]benzodiazepin-6(7H)-one]	0.0279	86				
0.14	O=C1CC2CNCCN2c2cc(-c3ccccc3Cl)ccc2N1 (stereo not drawn) [Example 8, 10-(2-chlorophenyl)-1,2,3,4,4a,5-hexahydropyrazino[1,2-a][1,5]benzodiazepin-6(7H)-one]						
0.0032	O=C1CC2CNCCN2c2cc(/C=C/c3cccc(F)c3)ccc2N1 (stereo not drawn) [Example 9, 10-[(E)-2-(3-fluorophenyl)vinyl]-1,2,3,4,4a,5-hexahydropyrazino[1,2-a][1,5]benzodiazepin-6(7H)-one]						
0.17	O=C1CC2CNCCN2c2ccc(-c3ccc(Cl)cc3)cc2N1 (stereo not drawn) [Example 14, 9-(4-chlorophenyl)-1,2,3,4,4a,5-hexahydropyrazino[1,2-a][1,5]-benzodiazepin-6(7H)-one]						
0.097	Clc1ccccc1CN1CCC2CNCCN2c2ccccc21 (stereo not drawn) [Example 21, 7-(2-chlorobenzyl)-1,2,3,4,4a,5,6,7-octahydropyrazino[1,2-a][1,5]benzodiazepine]	0.044	93				
0.085	Clc1cccc(CN2CCC3CNCCN3c3ccccc32)c1 (stereo not drawn) [Example 22, 7-(3-chlorobenzyl)-1,2,3,4,4a,5,6,7-octahydropyrazino[1,2-a][1,5]benzodiazepine]	0.0697	80.5				
0.36	O=C1CC2CN(Cc3ccccc3)CCN2c2cc(Cl)ccc2N1 (stereo not drawn) [Example 24, 3-benzyl-10-chloro-1,2,3,4,4a,5-hexahydropyrazino[1,2-a][1,5]benzodiazepin-6(7H)-one]	0.942					
0.0014	O=C1CC2CNCCN2c2cc(/C=C/c3cccc(Cl)c3)ccc2N1 (stereo not drawn) [Example 25, 10-[(E)-2-(3-chlorophenyl)vinyl]-1,2,3,4,4a,5-hexahydropyrazino[1,2-a][1,5]benzodiazepin-6(7H)-one]	0.0145	101				
0.032	O=C1CC2CNCCN2c2cc(/C=C/c3ccc(F)cc3)ccc2N1 (stereo not drawn) [Example 26, 10-[(E)-2-(4-fluorophenyl)vinyl]-1,2,3,4,4a,5-hexahydropyrazino[1,2-a][1,5]benzodiazepin-6(7H)-one]	0.0855	98.5				
0.036	O=C1CC2CNCCN2c2cc(/C=C/c3ccc(F)cc3F)ccc2N1 (stereo not drawn) [Example 28, 10-[(E)-2-(2,4-difluorophenyl)vinyl]-1,2,3,4,4a,5-hexahydropyrazino[1,2-a][1,5]benzodiazepin-6(7H)-one]	0.131	92				
0.011	O=C1CC2CNCCN2c2cc(CCc3ccccc3)ccc2N1 (stereo not drawn) [Example 29, 10-(2-phenylethyl)-1,2,3,4,4a,5-hexahydropyrazino[1,2-a][1,5]benzodiazepin-6(7H)-one]	0.0043	104				
